# Data reported in patent US9890166B2, “Imidazopyrrolidine derivatives and their use in the treatment of disease” (NOVARTIS AG, priority 2013, dated 2018).
# Columns and labels:
# [1] = target: CREBBP bromodomain (His-CREBBP(1081-1197)) (Homo sapiens (Human), UniProt Q92793); experiment: AlphaScreen in-vitro binding assay for CREBBP; conditions: single determination or n ≧ 2 independent determinations, read-out: Biochemical IC50 CREBBP
# Procedure: AlphaScreen In-Vitro Binding Assay for CREBBP
# In order to assess bromodomain selectivity, we set up a binding assay using the bromodomain encoded by the CREBBP gene. […] Reactions were incubated at 30° C. for 35 minutes. Subsequently 4.5 μl per well detection mix (50 mM HEPES, pH 7.5, 0.005% Tween20, 0.02% BSA, 150 mM NaCl, 45 μg/ml Ni-chelate acceptor beads, 45 μg/mIstreptavidin-donor beads) (Perkin Elmer)) were added. After 60 minutes incubation at room temperature, plates were measured in a Perkin Elmer EnVision multilabel reader. IC50 values were determined from percent inhibition values at different compound concentrations by non-linear regression analysis.
# (§1) Preparation of Compound Dilutions
# (§2) Test compounds were dissolved in DMSO (10 mM) and transferred into 1.4 mL flat bottom or V-shaped Matrix tubes carrying a unique 2D matrix. The stock solutions were stored at […] if not used immediately. For the test procedure the vials were defrosted and identified by a scanner whereby a working sheet was generated that guided the subsequent working steps.
# (§3) Compound dilutions were made in 96 well plates. This format enabled the assay of maximally 40 individual test compounds at 8 concentrations (single points) including 4 reference compounds, if desired (known BET inhibitors from the prior art, for this and other assays of the type disclosed herein). The dilution protocol included the production of “pre-dilution plates”, “master plates” and “assay plates”.
# (§4) Pre-Dilution Plates: 96 polypropylene well plates were used as pre-dilution plates. A total of 4 pre-dilution plates were prepared including 10 test compounds each on the plate positions A1-A10, one standard compound at A11 and one DMSO control at A12. All dilution steps were done on a HamiltonSTAR robot.
# (§5) These plates were used directly for the assay which was performed in a total volume of 13.55 μL.
# K-562 cells = experiment: Cell growth inhibition assay (CellTiter-Glo), K-562; conditions: for GI50: Homo sapiens, K562, read-out: K-562 GI50; for K-562 TGI: K-562 cells, total growth inhibition, CellTiter-Glo;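 as to all read-outs here: cellular ATP measured by luminescence after 4 days of exposure, 3-fold dilution series from 10 µM, DMSO vehicle-treated cells define 100%, cell-free medium wells −100%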
# BRD4 (His-Brd4(44-477)) = BRD4 (His-Brd4(44-477)) (Homo sapiens (Human), UniProt O60885); experiment: TR-FRET in-vitro binding assay for BRD4; conditions: single determination or n ≧ 2 independent determinations, read-out: Biochemical IC50 BRD4
# Procedure: (§6) TR-FRET In-Vitro Binding Assays for BRD2, BRD3, and BRD4:
# (§7) All assays were performed in 384 well microtiter plates. Each assay plate contained 8-point serial dilutions for 40 test compounds, plus 16 high- and 16 low controls. Liquid handling and incubation steps were done on an Innovadyne Nanodrop Express equipped with a robotic arm (Thermo CatX, Perkin Elmer/Caliper Twister II) and an incubator (Liconic STX40, Thermo Cytomat 2C450). The assay plates were prepared by addition of 50 nl per well of compound solution in 90% DMSO HummingBird nanodispenser (Zinsser Analytic). […] Reactions were incubated at 30° C. for 35 minutes. […] After 35 minutes incubation at 30° C., plates were measured in a Perkin Elmer EnVision multilabel reader.
# as §1, §2, §3, §4, §5
# MV-4-11 cells = experiment: Cell growth inhibition assay (CellTiter-Glo), MV-4-11; conditions: for GI50: Homo sapiens, MV4-11, read-out: MV-4-11 GI50; for MV-4-11 TGI: MV-4-11 cells, total growth inhibition, CellTiter-Glo;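 as to all read-outs here: cellular ATP luminescence after 4 days, 3-fold dilution series from 10 µM top dose, vehicle (0.1% DMSO) set to 100%, cell-free medium set to −100%, day 0 corrected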
# THP-1 cells = experiment: Cell growth inhibition assay (CellTiter-Glo), THP-1; conditions: for GI50: Homo sapiens, THP-1, read-out: THP-1 GI50; for THP-1 TGI: THP-1 cells, total growth inhibition, CellTiter-Glo;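 as to all read-outs here: viability read as cellular ATP luminescence after 4 days, 3-fold dilution series from 10 µM, DMSO vehicle-treated cells taken as 100%, cell-free medium wells as −100%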
# BRD3 (His-Brd3(20-477)) = BRD3 (His-Brd3(20-477)) (Homo sapiens (Human), UniProt Q15059); experiment: TR-FRET in-vitro binding assay for BRD3; conditions: single determination or n ≧ 2 independent determinations, read-out: Biochemical IC50 BRD3
# Procedure: as §6, §7, §1, §2, §3, §4, §5
# BRD3 (His-Brd3(20-477)), sequence (Q15059 20-477): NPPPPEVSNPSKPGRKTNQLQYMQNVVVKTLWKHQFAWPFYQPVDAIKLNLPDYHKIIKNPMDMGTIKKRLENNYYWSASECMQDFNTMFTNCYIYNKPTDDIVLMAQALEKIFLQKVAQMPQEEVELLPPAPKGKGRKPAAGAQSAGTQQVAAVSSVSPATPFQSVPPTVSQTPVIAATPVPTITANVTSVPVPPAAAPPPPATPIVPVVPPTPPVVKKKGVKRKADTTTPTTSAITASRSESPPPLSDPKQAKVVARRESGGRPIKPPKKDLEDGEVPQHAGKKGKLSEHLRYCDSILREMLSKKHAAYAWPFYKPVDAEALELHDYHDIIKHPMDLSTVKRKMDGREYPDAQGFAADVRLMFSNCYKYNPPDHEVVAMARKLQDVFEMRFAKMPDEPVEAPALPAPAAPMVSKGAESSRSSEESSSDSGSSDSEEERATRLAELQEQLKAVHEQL
# CREBBP bromodomain (His-CREBBP(1081-1197)), sequence (Q92793 1081-1197): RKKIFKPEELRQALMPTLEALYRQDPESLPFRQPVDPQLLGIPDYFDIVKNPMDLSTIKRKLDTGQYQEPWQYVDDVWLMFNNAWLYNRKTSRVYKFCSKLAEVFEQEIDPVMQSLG
IC50 [1] [nM],GI50 (K-562 cells) [nM],IC50 (BRD4 (His-Brd4(44-477))) [nM],GI50 (MV-4-11 cells) [nM],GI50 (THP-1 cells) [nM],IC50 (BRD3 (His-Brd3(20-477))) [nM],SMILES,K-562 TGI (K-562 cells) [nM],MV-4-11 TGI (MV-4-11 cells) [nM],THP-1 TGI (THP-1 cells) [nM]
525,244,25,34.4,62.7,22.5,"Cc1cc(N2C(=O)c3nc(C4=CCOCC4)[nH]c3[C@H]2c2ccc(Cl)cc2)cn(C)c1=O [Example 152, (R)-6-(4-chlorophenyl)-2-(3,6-dihydro-2H-pyran-4-yl)-5-(1,5-dimethyl-6-oxo-1,6-dihydropyridin-3-yl)-5,6-dihydropyrrolo[3,4-d]imidazol-4(1H)-one]",>10000,57.3,135.5
> 37000,41,11.5,4.37,5.03,13,"Cc1cc(N2C(=O)c3nc(C4=CCOCC4)[nH]c3C2c2ccc(Cl)cc2)nc2c1nnn2C (stereo not drawn) [Example 162, 6-(4-chlorophenyl)-2-(3,6-dihydro-2H-pyran-4-yl)-5-(3,7-dimethyl-3H-[1,2,3]triazolo[4,5-b]pyridin-5-yl)-5,6-dihydropyrrolo[3,4-d]imidazol-4(1H)-one]",>7000,11.12,10.54
980,19.6,13,5.22,6.28,17,"Cc1cc(N2C(=O)c3nc(C4CCOC4)n(C(C)C)c3[C@H]2c2ccc(Cl)cc2)cc2c1nnn2C (stereo partly drawn) [Example 172, (6R)-6-(4-chlorophenyl)-5-(1,4-dimethyl-1H-benzo[d][1,2,3]triazol-6-yl)-1-isopropyl-2-(tetrahydrofuran-3-yl)-5,6-dihydropyrrolo[3,4-d]imidazol-4(1H)-one]",>10000,10.33,12.26

# More lines, now with the values behind:
SMILES,IC50 [1] [nM],GI50 (K-562 cells) [nM],IC50 (BRD4 (His-Brd4(44-477))) [nM],GI50 (MV-4-11 cells) [nM],GI50 (THP-1 cells) [nM],IC50 (BRD3 (His-Brd3(20-477))) [nM],K-562 TGI (K-562 cells) [nM],MV-4-11 TGI (MV-4-11 cells) [nM],THP-1 TGI (THP-1 cells) [nM]
"Cc1cc(N2C(=O)c3nc(C4=CCOCC4)[nH]c3C2c2ccc(Cl)cc2)cn2c(C)nnc12 (stereo not drawn) [Example 116, 6-(4-chlorophenyl)-2-(3,6-dihydro-2H-pyran-4-yl)-5-(3,8-dimethyl-[1,2,4]triazolo[4,3-a]pyridin-6-yl)-5,6-dihydropyrrolo[3,4-d]imidazol-4(1H)-one]",2250,330,41,71.5,91.1,58,>10000,117.5,166
"COc1cc(C(F)(F)F)ccc1-c1nc2c([nH]1)C(c1ccc(Cl)cc1)N(c1cc(C)c3nnc(C)n3c1)C2=O (stereo not drawn) [Example 136, 6-(4-chlorophenyl)-5-(3,8-dimethyl-[1,2,4]triazolo[4,3-a]pyridin-6-yl)-2-(2-methoxy-4-(trifluoromethyl)phenyl)-5,6-dihydropyrrolo[3,4-d]imidazol-4(1H)-one]",2600,227,30,76.6,79.4,32,>10000,114,179.5
"Cc1cc(N2C(=O)c3nc(C4=CCOCC4)n(C(C)C)c3C2c2ccc(Cl)cc2)nc2c1nnn2C (stereo not drawn) [Example 160, 6-(4-chlorophenyl)-2-(3,6-dihydro-2H-pyran-4-yl)-5-(3,7-dimethyl-3H-[1,2,3]triazolo[4,5-b]pyridin-5-yl)-1-isopropyl-5,6-dihydropyrrolo[3,4-d]imidazol-4(1H)-one]",> 37000,25.8,< 11,5.95,4.6,< 11,>7000,4.973,6.383
"COc1ncccc1-c1nc2c([nH]1)C(c1ccc(Cl)cc1)N(c1cc(C)c3nnn(C)c3n1)C2=O (stereo not drawn) [Example 163, 6-(4-chlorophenyl)-5-(3,7-dimethyl-3H-[1,2,3]triazolo[4,5-b]pyridin-5-yl)-2-(2-methoxypyridin-3-yl)-5,6-dihydropyrrolo[3,4-d]imidazol-4(1H)-one]",> 37000,53.3,13,15.5,15.8,16,>10000,29.05,25.75
"Cc1cc(N2C(=O)c3nc(C4=CCOCC4)n(C(C)C)c3[C@H]2c2ccc(Cl)cc2)nc2c1nnn2C [Example 164, (R)-6-(4-chlorophenyl)-2-(3,6-dihydro-2H-pyran-4-yl)-5-(3,7-dimethyl-3H-[1,2,3]triazolo[4,5-b]pyridin-5-yl)-1-isopropyl-5,6-dihydropyrrolo[3,4-d]imidazol-4(1H)-one]",11200,13.2,< 11,0.887,1.12,< 11,>10000,1.83,2.43
"Cc1cc(N2C(=O)c3nc(C4=CCOCC4)[nH]c3[C@H]2c2ccc(Cl)cc2)nc2c1nnn2C [Example 165, (R)-6-(4-chlorophenyl)-2-(3,6-dihydro-2H-pyran-4-yl)-5-(3,7-dimethyl-3H-[1,2,3]triazolo[4,5-b]pyridin-5-yl)-5,6-dihydropyrrolo[3,4-d]imidazol-4(1H)-one]",14800,47.9,19,4.12,4,18,>10000,12.74,15.67
"COc1ncccc1-c1nc2c([nH]1)[C@@H](c1ccc(Cl)cc1)N(c1cc(C)c3nnn(C)c3n1)C2=O [Example 166, (R)-6-(4-chlorophenyl)-5-(3,7-dimethyl-3H-[1,2,3]triazolo[4,5-b]pyridin-5-yl)-2-(2-methoxypyridin-3-yl)-5,6-dihydropyrrolo[3,4-d]imidazol-4(1H)-one]",33100,84.6,13,5.42,7.54,12,>10000,8.15,11.28
